US10525079B2, “Pharmaceutical composition for preventing or treating breast cancer including crystalline polymorph of tetraarsenic hexoxide, and method for producing same” (CHEMAS CO., LTD., priority 2016, dated 2020)

What was measured:
[1] = system: human breast cancer cells, MDA-MB-231; assay: Breast cancer metastasis inhibitory effect in nude mice transplanted with MDA-MB-231; assay type: in vivo, babl/c-nu male nude mice; settings: MDA-MB-231 subcutaneous, oral 4.5 mg/kg for 7 days; for percentage of inhibition of cancer cell metastasis: cancer cells spread to the lungs counted; for spreading of the breast cancer cells to the lungs: versus untreated control
Description: The nude mice were allowed free access to food and water, and were bred in a 12-hr light/12-hr dark cycle for 7 days.
The mice were transplanted with human breast cancer cells, MDA-MB-231, through subcutaneous injection, and bred for 7 days. After 7 days, the mice were randomly divided, and then respective mice were orally administered with the compositions of Example 1 and Comparative Example 1 at 4.5 mg/kg for 7 days. Here, the mice treated with nothing after the transplantation of breast cancer cells were used as a control group. After 7 days of administration of the compositions, lung tissues were taken from the mice, and then cancer cells spread to the lungs were counted to compare the degree of inhibition of breast cancer metastasis.

p21 = assay: RT-PCR mRNA expression of p21 in MCF-7 cells; assay type: cell-based, human; settings: 0-15 μM, 24 hours, with increase in concentration
Description: (§1) Fetal bovine serum (FBS) and cell culture medium were prepared (Hyclone). RT-PCR Kit and Trizol were obtained from Takara Biotechnology CO., LTD., and Annexin V-FITC was obtained from Shanghai Biyuntian Biological Technology Co., LTD. Primers were designed and synthesized by Beijing Aodingkangsheng Biological Technology Co., LTD.
(§2) Human breast cancer cells MCF-7, as a human cancer cell line, were obtained from the Shanghai Cell Bank of Chinese Academy of Sciences. MCF-7 cells were incubated in Minimum Essential media (MEM) supplemented with 10% FBS, 100 U/ml penicillin, and 100 μg/m streptomycin in a humidified incubator with 5% CO2 and 95% air. The media were exchanged every three days.
(§3) In order to investigate the effect of Example 1 on the induction of cell apoptosis, mRNA expression levels of caspase-3, p21, cyclin E1, and cyclin A2, which are genes involved in cell cycle and apoptosis, were examined by RT-PCR. The cells were dispensed at 1×10^5 cells/well in a 6-well culture dish, and incubated for 24 hours. After 24 hours, the cells contained in the MEM containing 10% FBS were treated with Example 1 at 0, 1, 3, 6, 9, 12 or 15 μM, and incubated for 24 hours. After 24 hours, the cells were collected, and then RNA was extracted using Trizol reagent. […]

[2] = system: human breast cancer cells SK-BR-3; assay: Cell proliferation assay (MTT assay), SK-BR-3 cells; assay type: cell-based
Description: (§4) Fetal bovine serum (FBS) and cell culture medium were prepared (Hyclone), and dimethyl sulfoxide (DMSO) and 3-(4,5-dimetyl-thiazol-2yl)-2,5-diphenyltetrazolium bromide (MTT, Amresco LLC, USC) were prepared.
(§5) As human cancer cell lines, human breast cancer cells MCF-7 and SK-BR-3 were obtained from the Shanghai Cell Bank of Chinese Academy of Sciences. The MCF-7 cells were incubated in Minimum Essential Media (MEM) supplemented with 10% FBS, 100 U/ml penicillin, and 100 μg/ml streptomycin and the SK-BR-3 cells were incubated in Dulbecco's modified Eagle's medium (DMEM) supplemented with 10% FBS, 100 U/ml penicillin, and 100 μg/ml streptomycin in a humidified incubator with 5% CO2 and 95% air. The media were exchanged every three days.
(§6) The effects of Example 1 and Comparative Examples 1 to 3 on cell proliferation were assessed using MTT assay. MTT assay is based on the ability of viable cells against MTT to produce insoluble dark blue formazan products. After the cells were suspended in the medium by trypsin treatment and collected, the cells were dispensed at a density of 4×10^3 cells/well in a 96-well culture dish (Costar, Cambridge, Mass., USA). […] All the crystals were completely dissolved by standing at room temperature for 15 minutes, and the absorbance was measured using a micro-plate reader at a wavelength of 570 nm (A570 nm).
(§7) The absorbance value of the control group treated without the sample was calculated as 100, and the absorbance value of the treatment group treated with the sample, compared with that of the control group, was calibrated, and the percentage of inhibition of cell proliferation was calculated according to the following equation. Percentage (%) of inhibition of cell proliferation=((mean absorbance of control group cells−mean absorbance of treatment group cells)/mean absorbance of control group cells)×100
(§8) All data were expressed as mean±standard error of the mean (mean±SEM). […]

cyclin A2 = assay: RT-PCR mRNA expression of cyclin A2 in MCF-7 cells; assay type: cell-based, human; settings: 0-15 μM, 24 hours, with increase in concentration
Description: as §1, §2, §3

[3] = system: human breast cancer cells MCF-7; assay: Cell proliferation assay (MTT assay), MCF-7 cells; assay type: cell-based
Description: as §4, §5, §6, §7, §8

metastatic breast cancer = assay: Clinical test in a patient with metastatic breast cancer (CT images of the lungs); assay type: in vivo, human; settings: oral 5 mg three times a day (15 mg/day), after 8, 13, 17 and 22 months of administration
Description: The following clinical test was conducted using the composition of Example 1.
The patient received hospital treatments and folk remedies since breast cancer was found in 2006, but the breast cancer was metastasized to the lungs, pleura, bones, and liver. In May 2014, pleural effusion and peritoneal fluid collection were found, and thus the pleural effusion was extracted several times. However, due to a severe difficulty in breathing caused by malignant pleural effusion, the patient breathed through an oxygen respiratory system in an emergency room and hospice medical ward. However, the patient began to develop pallor due to a lack of oxygen, and the patient, having about one week left to live, was orally administered with 5 mg of Example 1 three times a day (15 mg/day).
CT images of the patient before the administration of Example 1 and after 8, 13, 17 and 22 months of administration of Example 1 are shown in FIG. 6. Before the administration of Example 1, the airway was closed due to metastasis to the right lung and left lung, but after 8, 13, 17, and 22 months of administration, the sizes of the cancers in both of the lungs were decreased as the duration of administration increased.

[4] = system: human breast cancer cells MCF-7; assay: Induction of cell apoptosis by flow cytometry (Annexin V-FITC / PI); assay type: cell-based; settings: MCF-7 cells, 0, 1, 3, 6, 9, 12 or 15 μM, 24 hours; with increase in treatment concentration
Description: as §1, §2
The effect of Example 1 on the induction of cell apoptosis was assessed by flow cytometry. The cells were dispensed at 1×10^5 cells/well in a 6-well culture dish, and incubated for 24 hours. After 24 hours, the cells contained in the MEM containing 10% FBS were treated with Example 1 at 0, 1, 3, 6, 9, 12 or 15 μM, and incubated for 24 hours. After 24 hours, the cells were treated using Annexin V-FITC kit to check cell apoptosis, and also treated with propidium iodide (PI) for distinguishment from natural cell death. […] The cells treated with the Annexin V-FITC kit were analyzed for the degree of cell apoptosis by using the BD FACS calibur flow cytometry system. […]

caspase-3 = assay: RT-PCR mRNA expression of caspase-3 in MCF-7 cells; assay type: cell-based, human; settings: 0-15 μM, 24 hours, with increase in concentration
Description: as §1, §2, §3

cyclin E1 = assay: RT-PCR mRNA expression of cyclin E1 in MCF-7 cells; assay type: cell-based, human; settings: 0-15 μM, 24 hours, with increase in concentration
Description: as §1, §2, §3

[5] = compared with Comparative Example 2 or 3 (Example 1 and Comparative Example 1 mixed at 4:1 or 1:1)

Molecule | percentage of inhibition of cancer cell metastasis [1] | spreading of the breast cancer cells to the lungs [1] | mRNA expression of p21 (p21) | percentage of inhibition of SK-BR-3 cell proliferation [2, 5] | percentage of inhibition of SK-BR-3 cell proliferation ([2]; incubation 48 hours (FIG. 3A), compared with Comparative Example 1, 0-80 μM) | percentage of inhibition of SK-BR-3 cell proliferation ([2]; incubation 72 hours (FIG. 3B), compared with Comparative Example 1, 0-80 μM) | mRNA expression of cyclin A2 (cyclin A2) | percentage of inhibition of MCF-7 cell proliferation [3, 5] | percentage of inhibition of MCF-7 cell proliferation ([3]; incubation 48 hours (FIG. 2A), compared with Comparative Example 1, 0-80 μM) | percentage of inhibition of MCF-7 cell proliferation ([3]; incubation 72 hours (FIG. 2B), compared with Comparative Example 1, 0-80 μM) | sizes of the cancers in both of the lungs (CT images) (metastatic breast cancer) | cell apoptosis (annexin V compared with PI) [4] | mRNA expression of caspase-3 (caspase-3) | mRNA expression of cyclin E1 (cyclin E1)
O1[As]2O[As]3O[As]1O[As](O2)O3 [Comparative Example 1, tetraarsenic hexoxide] | 50% | inhibited |  |  |  |  |  |  |  |  |  |  |  | 
tetraarsenic hexoxide [Example 1] | ≥ 90% | inhibited | increased | higher | higher | higher | decreased | higher | higher | higher | decreased | increased | increased | increased
